Values after ≈ are worked out from the molar mass of the structure shown. Like-named read-outs stand apart in the source and are kept apart here.
Key:
Assay type in all cases: cell-based
Pseudomonas aeruginosa = experiment: Broth microdilution MIC, 50 clinical isolates
Outline: (§1)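 CLSI broth microdilution in cation-adjusted Mueller Hinton broth, with 3% lysed horse blood added for streptococci, which were incubated with CO2.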

Enterobacter aerogenes = experiment: Broth microdilution MIC, 50 clinical isolates
Outline: as §1

Proteus mirabilis = experiment: Broth microdilution MIC, 50 clinical isolates
Outline: as §1

Prevotella spp. = experiment: Agar dilution MIC, 30 clinical isolates
[1] = 30 Prevotella spp. clinical isolates

## CO/N=C(\C(=O)N[C@@H]1C(=O)N2C(C(=O)O)=C(CSc3nc(=O)c(=O)[nH]n3C)CS[C@H]12)c1csc(N)n1 [ceftriaxone]
Pseudomonas aeruginosa; 4 μg/mL
  Cumulative percentage of isolates inhibited at MIC: 2.0%
  Number of test isolates at MIC: 1
Pseudomonas aeruginosa; 8 μg/mL
  Cumulative percentage of isolates inhibited at MIC: 10.0%
  Number of test isolates at MIC: 4
Pseudomonas aeruginosa; 16 μg/mL
  Cumulative percentage of isolates inhibited at MIC: 16.0%
  Number of test isolates at MIC: 3
Pseudomonas aeruginosa; 32 μg/mL
  Cumulative percentage of isolates inhibited at MIC: 36.0%
  Number of test isolates at MIC: 10
Pseudomonas aeruginosa; 64 μg/mL
  Cumulative percentage of isolates inhibited at MIC: 58.0%
  Number of test isolates at MIC: 11
Pseudomonas aeruginosa; 128 μg/mL
  Cumulative percentage of isolates inhibited at MIC: 72.0%
  Number of test isolates at MIC: 7
Pseudomonas aeruginosa; >128 μg/mL
  Cumulative percentage of isolates inhibited at MIC: 100.0%
  Number of test isolates at MIC: 14
Pseudomonas aeruginosa; Pseudomonas aeruginosa, read-out: MIC50
  MIC50: 64 µg/mL (≈ 115 µM)
Pseudomonas aeruginosa; Pseudomonas aeruginosa, read-out: MIC90
  MIC90: > 128 µg/mL
Pseudomonas aeruginosa; listed as CTR
  MIC90: >128 µg/mL
Enterobacter aerogenes
  % R: 26%
  % S: 74%
  MIC range: 0.03 to 64 µg/mL
  Mode: 0.06 µg/mL
Enterobacter aerogenes; 0.03 μg/mL
  Cumulative percentage of isolates inhibited at MIC: 6.0%
  Number of test isolates at MIC: 3
Enterobacter aerogenes; 0.06 μg/mL
  Cumulative percentage of isolates inhibited at MIC: 42.0%
  Number of test isolates at MIC: 18
Enterobacter aerogenes; 1 μg/mL
  Cumulative percentage of isolates inhibited at MIC: 74.0%
  Number of test isolates at MIC: 2
Enterobacter aerogenes; 8 μg/mL
  Cumulative percentage of isolates inhibited at MIC: 78.0%
  Number of test isolates at MIC: 2
Enterobacter aerogenes; 16 μg/mL
  Cumulative percentage of isolates inhibited at MIC: 86.0%
  Number of test isolates at MIC: 4
Enterobacter aerogenes; 32 μg/mL
  Cumulative percentage of isolates inhibited at MIC: 94.0%
  Number of test isolates at MIC: 4
Enterobacter aerogenes; 64 μg/mL
  Cumulative percentage of isolates inhibited at MIC: 100.0%
  Number of test isolates at MIC: 3
Enterobacter aerogenes; Klebsiella aerogenes, read-out: MIC50
  MIC50: 0.12 µg/mL (≈ 0.216 µM)
Enterobacter aerogenes; Klebsiella aerogenes, read-out: MIC90
  MIC90: 32 µg/mL (≈ 57.7 µM)
Enterobacter aerogenes; listed as CTR
  % R: 26%
Proteus mirabilis
  % R: Six
  % S: 94%
  Mode: 0.004 µg/mL
Proteus mirabilis; 0.004 μg/mL
  Cumulative percentage of isolates inhibited at MIC: 62.0%
  Number of test isolates at MIC: 21
Proteus mirabilis; 0.008 μg/mL
  Cumulative percentage of isolates inhibited at MIC: 84.0%
  Number of test isolates at MIC: 11
Proteus mirabilis; 0.015 μg/mL
  Cumulative percentage of isolates inhibited at MIC: 86.0%
  Number of test isolates at MIC: 1
Proteus mirabilis; 0.03 μg/mL
  Cumulative percentage of isolates inhibited at MIC: 88.0%
  Number of test isolates at MIC: 1
Proteus mirabilis; 0.06 μg/mL
  Cumulative percentage of isolates inhibited at MIC: 92.0%
  Number of test isolates at MIC: 2
Proteus mirabilis; 1 μg/mL
  Cumulative percentage of isolates inhibited at MIC: 94.0%
  Number of test isolates at MIC: 1
Proteus mirabilis; 4 μg/mL
  Cumulative percentage of isolates inhibited at MIC: 96.0%
  Number of test isolates at MIC: 1
Proteus mirabilis; 8 μg/mL
  Cumulative percentage of isolates inhibited at MIC: 98.0%
  Number of test isolates at MIC: 1
Proteus mirabilis; >128 μg/mL
  Cumulative percentage of isolates inhibited at MIC: 100.0%
  Number of test isolates at MIC: 1
Proteus mirabilis; Proteus mirabilis, read-out: MIC50
  MIC50: 0.004 µg/mL (≈ 0.00721 µM)
Proteus mirabilis; Proteus mirabilis, read-out: MIC90
  MIC90: 0.06 µg/mL (≈ 0.108 µM)
Proteus mirabilis; listed as CTR
  % R: 6%^
Proteus mirabilis; ≤0.002 μg/mL
  Cumulative percentage of isolates inhibited at MIC: 20.0%
  Number of test isolates at MIC: 10
Prevotella spp.
  MIC range: 0.12 to 128 µg/mL
  isolates resistant: 33%
  isolates with intermediate resistance: 20%
Prevotella spp.; [1]
  % I: 20%
  % R: 33%
  % S: 47%
  MIC50: 32 µg/mL (≈ 57.7 µM)
  MIC90: 64 µg/mL (≈ 115 µM)
  MIC range: 0.12 to 128 µg/mL
Prevotella spp.; Prevotella, read-out: MIC50
  MIC50: 32 µg/mL (≈ 57.7 µM)
Prevotella spp.; Prevotella, read-out: MIC90
  MIC90: 64 µg/mL (≈ 115 µM)
Prevotella spp.; modal MIC, 30 Prevotella spp. clinical isolates
  Mode: 64 µg/mL
